Measured values from EP4159213A1, “PHARMACEUTICAL COMPOSITIONS FOR USE IN PREVENTION AND/OR TREATMENT AND/OR CURE OF HEPATITIS B VIRUS” (Katholieke Universiteit Leuven, priority 2021, dated 2023).
Where a name gives a salt, the structure may show the parent alone. Read-outs that look alike come from different tables or passages of the source.

Target: T1, human NTCP (Homo sapiens, UniProt Q14973)
T1 sequence (Q14973 1-349): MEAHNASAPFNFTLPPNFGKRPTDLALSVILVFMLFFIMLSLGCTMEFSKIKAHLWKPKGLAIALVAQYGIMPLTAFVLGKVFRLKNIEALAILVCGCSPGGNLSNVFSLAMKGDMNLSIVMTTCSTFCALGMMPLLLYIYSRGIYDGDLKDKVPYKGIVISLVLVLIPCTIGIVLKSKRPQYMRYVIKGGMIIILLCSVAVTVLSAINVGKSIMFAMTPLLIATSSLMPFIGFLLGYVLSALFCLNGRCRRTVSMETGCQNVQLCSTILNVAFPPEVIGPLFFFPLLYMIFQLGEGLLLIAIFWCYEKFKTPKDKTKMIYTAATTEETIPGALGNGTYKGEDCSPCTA
Assay: Inhibition of tauro-nor-THCA-24-DBD uptake in NTCP-transfected CHO cells
Assay type: cell-based
Set-up: expressed in transfected cells; host or cells: CHO cells, geneticin selection, expression induced with sodium butyrate
Settings: for concentration-dependent inhibition of tauro-nor-THCA-24-DBD uptake: multiple inhibitor concentrations
Procedure: The cells were placed in an incubator at 37 °C and 5% CO2. The culture medium consisted of DMEM with 1 g·L^-1 glucose and 25 mM HEPES, supplemented with 10% FBS, 0.05 mg·mL^-1 L-proline, 100 IU·mL^-1 penicillin, 100 […], 2 mM glutamine, 0.11 mg·mL^-1 sodium pyruvate. To ensure selection of NTCP-transfected cells, 0.5 mg·mL^-1 geneticin was added to the medium of the transfected cells. Cells were seeded in black 96-well plates with transparent bottom at a density of 6000 cells·well^-1 and 4000 cells·well^-1 for wild-type and transfected cells, respectively. The medium was replaced every other day and 5 mM sodium butyrate was added to induce protein expression at least 36 h before the start of the experiments. Experiments were performed on day 4 or 5 after seeding when confluence was reached.
Furthermore, to analyse the uptake experiments in NTCP-transfected CHO cells, cells were rinsed twice with 200 µL-well^-1 uptake buffer (HBSS containing 10 mM HEPES, pH 7.4) at 37 °C and subsequently preincubated with 100 µL uptake buffer for 15 minutes. For inhibition experiments, compounds were added at double concentration during preincubation. Uptake was initiated by adding 100 µL double-concentrated tauro-nor-THCA-24-DBD solution in uptake buffer. Cells were incubated for 15 minutes. The reaction was quenched by aspirating the incubation mixture and washing four times with ice cold uptake buffer. The cells were lysed with 100 µL 0.5% Triton X-100 in PBS and placed on a plate shaker (300 rpm) at room temperature for 30 minutes. Uptake of tauro-nor-THCA-24-DBD was determined using fluorescence spectroscopy (excitation 440 nm, emission 580 nm) using a Tecan Infinite 200 plate reader (Tecan Benelux, Mechelen, Belgium). Protein content of each well was determined with the BCA Protein assay (Thermo Fisher Scientific, Waltham, MA) performed according to the manufacturer's protocol. Uptake kinetics of tauro-nor-THCA-24-DBD were determined by incubating eight different concentrations in the absence of any compound. […] All conditions were tested in triplicate.
Uptake of tauro-nor-THCA-24-DBD in presence of compounds was expressed to uptake of the control for each batch, i.e. when no compound was present.
For determination of the IC50, the uptake in presence of various concentrations of inhibitor was fitted to the sigmoid Emax model: E = Emax −(Emax−E0) × (([I])^n)/(([I])^n + IC50^n) [formula] with E the uptake of tauro-nor-THCA-24-DBD, E0 the uptake at maximal inhibition by the compound, Emax the uptake at minimal inhibition, IC50 the concentration of the inhibitor at half maximal inhibition, n the Hill coefficient and [I] the concentration of the inhibitor. All curves were fitted with nonlinear least squares regression using R version 3.5.1.
Assuming competitive inhibition, the Cheng-Prusoff equation was used to determine the Ki value: Ki = (IC50)/(1 + ([S])/(Km)) [formula] where Ki is the binding affinity of the inhibitor, IC50 the concentration of the inhibitor at half maximal inhibition, [S] the substrate concentration, and Km the Michaelis-Menten constant of the substrate.

[1] = compound at equimolar concentration with 3 µM tauro-nor-THCA-24-DBD, triplicate
[2] = 3 µM tauro-nor-THCA-24-DBD, Cheng-Prusoff from IC50, screening hits, read-out: Ki
[3] = 3 µM tauro-nor-THCA-24-DBD, values given with ± spread, read-out: Ki

| Compound | Uptake of tauro-nor-THCA-24-DBD (% of control) [1] | Ki [2] [µM] | also measured |
| --- | --- | --- | --- |
| Oc1c(Cl)cc(Cl)c(Cl)c1Cc1c(O)c(Cl)cc(Cl)c1Cl [Hexachlorophene] | 23.92 % of control |  | Ki: 0.26 µM |
| O=C(OC[C@H]1O[C@@H](OC(=O)c2cc(O)c(O)c(OC(=O)c3cc(O)c(O)c(O)c3)c2)[C@H](OC(=O)c2cc(O)c(O)c(OC(=O)c3cc(O)c(O)c(O)c3)c2)[C@@H](OC(=O)c2cc(O)c(O)c(OC(=O)c3cc(O)c(O)c(O)c3)c2)[C@@H]1OC(=O)c1cc(O)c(O)c(OC(=O)c2cc(O)c(O)c(O)c2)c1)c1cc(O)c(O)c(OC(=O)c2cc(O)c(O)c(O)c2)c1 [Tannic acid] | 8.31 % of control | 0.35 |  |
| Cc1cc2c(C(=O)NC[C@H](C)c3ccccc3)c(O)c(O)cc2c(O)c1-c1c(C)cc2c(C(=O)NC[C@H](C)c3ccccc3)c(O)c(O)cc2c1O [sabutoclax] |  |  | concentration-dependent inhibition of tauro-nor-THCA-24-DBD uptake (3 µM tauro-nor-THCA-24-DBD): showed concentration-dependent inhibition; Ki [3]: 0.522 ± 0.077 µM |
| CCCCCc1c2c(cc(O)c1C(=O)O)OC(=O)c1c(cc(OC)cc1C(=O)CCCC)O2 [Lobaric acid] | 9.70 % of control | 0.36 |  |
| CN[C@@H]1[C@@H](O)[C@@H](O[C@@H]2[C@@H](O)[C@H](O[C@H]3O[C@H]([C@@H](C)O)[C@@H](O)[C@H](O)[C@H]3N)[C@@H](N)C[C@H]2N)OC[C@]1(C)O [Geneticin] | 43.81 % of control |  |  |
| COC(=O)CC[C@@H](C)[C@H]1CC[C@H]2[C@@H]3[C@H](O)C[C@@H]4C[C@H](O)CC[C@]4(C)[C@H]3C[C@H](O)[C@]12C [Cholic acid, methyl ester] |  |  | Ki: 2.32 µM; Uptake of tauro-nor-THCA-24-DBD (% of control): 37.90 % of control |
| O=C1c2c(O)cc(O)cc2OC(c2ccc(O)cc2)C1c1c(O)cc(O)c2c(=O)cc(-c3ccc(O)c(O)c3)oc12 (stereo not shown) [fukugetin] |  |  | concentration-dependent inhibition of tauro-nor-THCA-24-DBD uptake (3 µM tauro-nor-THCA-24-DBD): showed concentration-dependent inhibition |
| CC(C)(O)CC[C@@H](O)[C@](C)(O)[C@H]1CC[C@@]2(O)C3=CC(=O)[C@@H]4C[C@@H](O)[C@@H](O)C[C@]4(C)[C@H]3CC[C@]12C [Crustecdysone] | 46.18 % of control |  |  |
| O=c1c(O)c(-c2ccc(O)c(O)c2)oc2cc(O)cc(O)c12 [quercetin] |  |  | concentration-dependent inhibition of tauro-nor-THCA-24-DBD uptake (3 µM tauro-nor-THCA-24-DBD): did not show concentration-dependent inhibition |
| CC[C@H]1OC(=O)[C@H](C)[C@@H](O[C@H]2C[C@@](C)(OC)[C@@H](O)[C@H](C)O2)[C@H](C)[C@@H](O[C@@H]2O[C@H](C)C[C@H](N(C)C)[C@H]2O)[C@](C)(O)C[C@@H](C)C(=O)[C@H](C)[C@@H](O)[C@]1(C)O [erythromycin] |  |  | concentration-dependent inhibition of tauro-nor-THCA-24-DBD uptake (3 µM tauro-nor-THCA-24-DBD): Only candesartan showed inhibition |
| Oligomycin (A shown) | 33.87 % of control | 0.26 |  |
| CCC(=O)O[C@H]1[C@H](O[C@@H]2[C@@H](C)[C@H](O[C@H]3C[C@@](C)(OC)[C@@H](O)[C@H](C)O3)[C@@H](C)C(=O)O[C@H](CC)[C@@](C)(O)[C@H](O)[C@@H](C)C(=O)[C@H](C)C[C@@]2(C)O)O[C@H](C)C[C@@H]1N(C)C [Erythromycin estolate] | 8.49 % of control | 0.52 |  |
| COc1ccccc1Oc1c(NS(=O)(=O)c2ccc(C(C)(C)C)cc2)nc(-c2ncccn2)nc1OCCO [Bosentan] |  |  | Ki (3 µM tauro-nor-THCA-24-DBD, 15 minutes, Cheng-Prusoff from IC50, known NTCP inhibitors, read-out: Ki ± SE): 6.3 ± 1.4 µM; concentration-dependent inhibition of tauro-nor-THCA-24-DBD uptake (3 µM tauro-nor-THCA-24-DBD): concentration-dependent manner |
| O=C(Nc1ccc([N+](=O)[O-])cc1Cl)c1cc(Cl)ccc1O [Niclosamide] | 35.45 % of control | 0.08 |  |
| O=C(O)c1ccccc1Nc1cccc(C(F)(F)F)c1 [Flufenamic acid] | 44.12 % of control | 7.51 |  |
| Echinocystic acid | 24.64 % of control |  |  |
| COC(=O)[C@H]1[C@H]2C[C@H]3c4[nH]c5ccccc5c4CCN3C[C@H]2CC[C@@H]1O [Rauwolscine hydrochloride] |  | 39.3 |  |

| Compound | Uptake of tauro-nor-THCA-24-DBD (% of control) [1] | Ki [2] [µM] | also measured |
| --- | --- | --- | --- |
| Oc1c(Cl)c(Cl)c(Cl)c(Cl)c1Cl [Pentachlorophenol] | 46.29 % of control | 2.27 |  |
| O=C(O)c1cc([N+](=O)[O-])ccc1NCCCc1ccccc1 [5-nitro-2-phenylpropylaminobenzoic acid] | 49.55 % of control | 0.82 |  |
| COc1c(CC=C(C)C)c2c(c3oc(=O)c(-c4ccc(O)cc4)c(O)c13)C=CC(C)(C)O2 [Scandenin] | 38.92 % of control |  |  |
| COC(=O)C1=C(C)NC(C)=C(C(=O)OCCN(C)Cc2ccccc2)C1c1cccc([N+](=O)[O-])c1 (stereo not shown) [Nicardipine hydrochloride] | 42.69 % of control | 3.53 |  |
| COC(=O)CC[C@@H](C)[C@H]1CC[C@H]2[C@@H]3CC[C@@H]4C[C@H](O)CC[C@]4(C)[C@H]3C[C@H](O)[C@]12C [Methyl deoxycholate] | 36.71 % of control | 4.84 |  |
| COc1cc2c(cc1OC)[C@@H]1C(=O)c3ccc4c(c3O[C@@H]1CO2)C=CC(C)(C)O4 [(-)-Deguelin] | 27.97 % of control | 1.67 |  |
| Cc1cc(O)c(C=O)c(O)c1C(=O)O [Haematommic acid] | 49.33 % of control |  |  |
| COP(=S)(OC)Oc1ccc(Sc2ccc(OP(=S)(OC)OC)cc2)cc1 [Temefos] | 38.51 % of control | 4.16 |  |
| CC(=O)O[C@H]1C[C@H](O[C@H]2[C@@H](O)C[C@H](O[C@H]3[C@@H](O)C[C@H](O[C@H]4CC[C@@]5(C)[C@H](CC[C@@H]6[C@@H]5C[C@@H](O)[C@]5(C)[C@@H](C7=CC(=O)OC7)CC[C@]65O)C4)O[C@@H]3C)O[C@@H]2C)O[C@H](C)[C@H]1O[C@@H]1O[C@H](CO)[C@@H](O)[C@H](O)[C@H]1O [Lanatoside c] |  |  | Ki: 125 µM; Uptake of tauro-nor-THCA-24-DBD (% of control): 45.13 % of control |
| Nc1nc(=O)c2[nH]c(=O)cnc2[nH]1 [Xanthopterin] | 49.67 % of control |  |  |
| CC/C(=C(/CC)c1ccc(O)cc1)c1ccc(O)cc1 [Diethylstilbestrol] | 48.51 % of control | 1.57 |  |
| CCOc1nc2cccc(C(=O)O)c2n1Cc1ccc(-c2ccccc2-c2nnn[nH]2)cc1 [candesartan] |  |  | Ki [3]: 50.9 ± 9.9 µM |
| Cc1cc2c(C(C)C)c(O)c(O)c(C=O)c2c(O)c1-c1c(C)cc2c(C(C)C)c(O)c(O)c(C=O)c2c1O [Gossypol] | 12.48 % of control | 0.4 |  |
| COc1cc(-c2coc3cc(OCc4ccccc4)c(OC)c(O)c3c2=O)cc(O)c1OC [Irigenin, 7-benzyl ether] | 46.71 % of control | 13 |  |
| CC(=O)O.Cc1cc2c(C(C)C)c(O)c(O)c(C=O)c2c(O)c1-c1c(C)cc2c(C(C)C)c(O)c(O)c(C=O)c2c1O [Gossypol-acetic acid complex] | 36.14 % of control | 3.1 |  |
| COc1ccc(-c2c(OC)c3c(OC)c4c(cc3oc2=O)OC(C)(C)C=C4)cc1 [Robustic acid methyl ether] | 21.11 % of control | 10.6 |  |
